From the supplement of paper PMC10307832

Experiments:
Experiment in all cases: relative viability (nuclei count vs DMSO), 5 days (fraction); higher = more cells survive
Vismodegib + Navitoclax = compound: CS(=O)(=O)c1ccc(C(=O)Nc2ccc(Cl)c(-c3ccccn3)c2)c(Cl)c1 [Vismodegib] + CC1(C)CCC(c2ccc(Cl)cc2)=C(CN2CCN(c3ccc(C(=O)NS(=O)(=O)c4ccc(N[C@H](CCN5CCOCC5)CSc5ccccc5)c(S(=O)(=O)C(F)(F)F)c4)cc3)CC2)C1 [Navitoclax] (partner 0.5 µM)
Outline: (§1)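 Lung cancer cell lines in 1536-well plates got either a single drug or a fixed anchor-drug dose together with five library-drug doses (not always all listed) in √10 steps, by pin tool, on the day after seeding. Nuclei were counted after 5 days, and relative viability is the treated-to-vehicle ratio of nuclei counts. Values are medians of duplicate plates.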

Ruxolitinib + Vorinostat = compound: N#CC[C@H](C1CCCC1)n1cc(-c2ncnc3[nH]ccc23)cn1 [Ruxolitinib] + O=C(CCCCCCC(=O)Nc1ccccc1)NO [Vorinostat] (partner 1 µM)
Outline: as §1

Ruxolitinib + Decitabine = compound: N#CC[C@H](C1CCCC1)n1cc(-c2ncnc3[nH]ccc23)cn1 [Ruxolitinib] + Nc1ncn([C@H]2C[C@H](O)[C@@H](CO)O2)c(=O)n1 [Decitabine] (partner 2 µM)
Outline: as §1

Ruxolitinib + AZD7762 = compound: N#CC[C@H](C1CCCC1)n1cc(-c2ncnc3[nH]ccc23)cn1 [Ruxolitinib] + NC(=O)Nc1cc(-c2cccc(F)c2)sc1C(=O)N[C@H]1CCCNC1 [AZD7762] (partner 0.2 µM)
Outline: as §1

Cell Line | relative viability (Vismodegib + Navitoclax; first compound 0.08 µM) | relative viability (Vismodegib + Navitoclax; first compound 0.253 µM) | relative viability (Vismodegib + Navitoclax; first compound 0.8 µM) | relative viability (Vismodegib + Navitoclax; first compound 2.53 µM) | relative viability (Vismodegib + Navitoclax; first compound 8 µM) | relative viability (Ruxolitinib + Vorinostat; first compound 0.08 µM) | relative viability (Ruxolitinib + Vorinostat; first compound 0.253 µM) | relative viability (Ruxolitinib + Vorinostat; first compound 0.8 µM) | relative viability (Ruxolitinib + Vorinostat; first compound 2.53 µM) | relative viability (Ruxolitinib + Vorinostat; first compound 8 µM) | relative viability (Ruxolitinib + Decitabine; first compound 0.08 µM) | relative viability (Ruxolitinib + Decitabine; first compound 0.253 µM) | relative viability (Ruxolitinib + Decitabine; first compound 0.8 µM) | relative viability (Ruxolitinib + Decitabine; first compound 2.53 µM) | relative viability (Ruxolitinib + Decitabine; first compound 8 µM) | relative viability (Ruxolitinib + AZD7762; first compound 0.253 µM) | relative viability (Ruxolitinib + AZD7762; first compound 0.8 µM) | relative viability (Ruxolitinib + AZD7762; first compound 2.53 µM) | relative viability (Ruxolitinib + AZD7762; first compound 8 µM) | relative viability (Ruxolitinib + AZD7762; first compound 0.08 µM)
SK-MES-1 | 1.23 | 1.22 | 1.23 | 1.15 | 1.17 | 1.19 | 1.07 | 1.01 | 0.968 | 0.949 | 0.45 | 0.362 | 0.429 | 0.319 | 0.358 |  |  |  |  | 
HCC-827 | 1.03 | 1.04 | 0.961 | 1.03 | 1.02 |  | 0.871 | 0.767 | 0.751 | 0.84 |  | 0.325 | 0.364 | 0.253 | 0.305 | 0.178 | 0.238 | 0.236 | 0.308 | 
NCI-H596 | 0.95 | 1.01 | 0.848 | 0.882 | 0.904 | 0.713 | 0.638 | 0.743 | 0.589 | 0.454 | 0.903 | 0.96 | 1.14 | 1.04 | 1.08 | 1.04 | 1.21 | 1.09 | 1.27 | 1.35
COR-L23 | 1.02 | 1.03 | 0.959 | 0.951 | 1.14 | 0.579 | 0.347 | 0.463 | 0.403 | 0.287 | 0.493 | 0.429 | 0.521 | 0.367 | 0.322 |  |  |  |  | 
201T | 1.23 | 1.18 | 1.15 | 1.23 | 1.17 | 1.12 | 1.16 | 1.21 | 1.25 | 1.17 | 0.949 | 0.914 | 1 | 1.02 | 0.973 | 0.622 | 0.595 | 0.649 | 0.763 | 0.583
NCI-H322M | 1.19 | 1.3 | 1.14 | 1.23 | 1.07 | 0.951 | 1.01 | 1.05 | 1.3 | 1.4 | 0.718 | 0.702 | 0.744 | 0.693 | 0.889 | 0.508 | 0.517 | 0.685 | 0.776 | 0.524
LU99A | 0.722 | 0.794 | 0.79 | 0.881 | 0.71 | 0.537 | 0.482 | 0.542 | 0.416 | 0.426 | 0.918 | 0.938 | 0.886 | 0.639 | 0.836 | 0.402 | 0.394 | 0.406 | 0.477 | 0.336
NCI-H2405 |  | 0.93 | 0.86 | 0.712 | 0.904 | 1 | 0.957 | 1.05 | 1.19 | 0.743 | 0.765 | 0.786 | 0.792 | 0.682 | 0.424 | 0.792 | 0.818 | 0.488 | 0.416 | 0.738
LK-2 | 0.818 | 0.734 | 0.797 | 0.859 | 0.784 | 0.265 | 0.26 | 0.254 | 0.287 | 0.209 | 0.228 | 0.237 | 0.35 | 0.308 | 0.273 | 0.489 | 0.815 | 0.481 | 0.648 | 0.4
HCC-366 | 0.991 | 0.98 | 0.974 | 1.1 | 1.09 | 0.34 | 0.321 | 0.423 | 0.192 | 0.167 | 0.361 | 0.321 | 0.318 | 0.24 | 0.275 | 0.253 | 0.262 | 0.166 | 0.246 | 0.286
NCI-H441 | 0.808 | 0.734 | 0.722 | 0.554 | 0.689 | 0.648 | 0.571 | 0.907 | 0.689 | 0.747 | 0.244 | 0.238 | 0.21 | 0.16 | 0.26 | 1.09 | 1.22 | 1.16 | 1.05 | 1.29
COR-L 105 | 0.733 | 0.721 | 1.02 | 0.777 | 0.781 |  | 0.721 | 0.785 | 0.488 | 0.615 |  | 0.57 | 0.656 | 0.659 | 0.58 |  |  |  |  | 
NCI-H2228 | 0.838 | 1.1 | 0.932 | 0.741 | 0.901 | 0.595 | 0.717 | 0.9 | 0.69 | 0.37 |  |  |  |  |  |  |  |  |  | 
ABC-1 |  |  |  |  |  |  | 1.18 | 1.4 | 0.825 | 0.907 |  | 1.03 | 1.38 | 1.21 | 1.21 | 1.07 | 0.834 | 0.743 | 0.928 | 
NCI-H2023 | 0.937 | 1.09 | 1.08 | 0.995 | 0.96 | 0.661 | 0.667 | 0.95 | 0.581 | 0.798 | 0.214 | 0.264 | 0.267 | 0.218 | 0.271 |  |  |  |  | 
